The record followed here is patent publication US9357792B2, “Fermented cereal product obtained by fermentation of rye bran with a Lactobacillus curvatus strain” (priority 2001, dated 2016).

For assay [1], the system named is H. pylori CCUG17875 binding to the Lewis b antigen. Put plainly: RIA inhibition assay: H. pylori pre-treated with product, then binding to 125I-labeled Lewis b conjugate. Details: species or system Helicobacter pylori. The settings on record: pretreated with 2 mM for 1 hour; FIG. 1B.
Assay [2] deals with H. pylori CCUG17875 adherence to human gastric mucosa. Put plainly: H. pylori adherence in situ to histo-sections of human gastric mucosa. As to conditions: after pretreatment with 2 mM. Type of assay: cell-based, Helicobacter pylori. As for the experimental part: Pretreatment of strain CCUG 17875 with soluble Lewis b antigen, with L. curvatus fermented rye bran and with ferric quinate is shown. Here, bacterial binding to 10 different gastric surface epithelium regions were estimated (value p<0.001(***), value p<0.01(**), value p<0.05(*)).
Bacterial adherence in situ was performed as described by Falk et al., 1993. Human biopsy samples of healthy gastric tissue were obtained from the Division for Gastroenterology, Norrland University Hospital, Umea, Sweden. The biopsies were taken from the antrum part of the stomach, then they were fixed in 4% buffered formalin and finally they were embedded in paraffin wax. Sections were stained with hematoxylin and eosin following standard procedures. H. pylori were first labeled with FITC, and bacterial adherence to the gastric mucous was then analyzed by the ability of L. curvatus-fermented rye-bran to inhibit bacterial adherence to re-hydrated histo-sections of human gastric epithelial cells in situ. For comparative inhibition analyzes, H. pylori was pre-incubated with Lewis b conjugate (10 μg/mL), and fermented rye-bran (1 mL) for 1 hour at room temperature. Then, as described above, the H. pylori bacterial cells were applied to the histo-sections. […]

Turning to Ferric Quinate, the “inhibition of H. pylori binding to the Lewis b antigen” value in assay [1] came to 69%. The “adherence of strain CCUG17875 to the gastric tissue section epithelium” value in assay [2] is “similarly much reduced”.
Turning to `O=C(O)[C@]1(O)C[C@@H](O)[C@@H](O)[C@H](O)C1` [Quinic Acid, reference compound], in assay [1], the “inhibition of H. pylori binding to the Lewis b antigen” value was “no inhibition”.
